Measurements reported in PubChem BioAssay (NCI).
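48-hour exposure; five concentrations; linearly interpolated endpoints. TGI: concentration producing complete growth inhibition.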

Tests used:
Test in all cases: DTP human tumour cell line panel, 48 h
786-0 renal = tested on: 786-0 renal
A498 renal = tested on: A498 renal
A549 NSCLC = tested on: A549 NSCLC
ACHN renal = tested on: ACHN renal
BT-549 breast = tested on: BT-549 breast
CAKI-1 renal = tested on: CAKI-1 renal
CCRF-CEM leukemia = tested on: CCRF-CEM leukemia
COLO 205 colon = tested on: COLO 205 colon
DU-145 prostate = tested on: DU-145 prostate
EKVX NSCLC = tested on: EKVX NSCLC
HCC-2998 colon = tested on: HCC-2998 colon
HCT-116 colon = tested on: HCT-116 colon
HCT-15 colon = tested on: HCT-15 colon
HL-60(TB) leukemia = tested on: HL-60(TB) leukemia
HOP-62 NSCLC = tested on: HOP-62 NSCLC
HOP-92 NSCLC = tested on: HOP-92 NSCLC
HS 578T breast = tested on: HS 578T breast
HT29 colon = tested on: HT29 colon
IGROV1 ovarian = tested on: IGROV1 ovarian
K-562 leukemia = tested on: K-562 leukemia
KM12 colon = tested on: KM12 colon
LOX IMVI melanoma = tested on: LOX IMVI melanoma
M14 melanoma = tested on: M14 melanoma
MALME-3M melanoma = tested on: MALME-3M melanoma
MCF7 breast = tested on: MCF7 breast
MDA-MB-231 breast = tested on: MDA-MB-231 breast
MDA-MB-435 = tested on: MDA-MB-435
MDA-N = tested on: MDA-N
MOLT-4 leukemia = tested on: MOLT-4 leukemia
NCI-H226 lung = tested on: NCI-H226 lung
NCI-H23 lung = tested on: NCI-H23 lung
NCI-H460 lung = tested on: NCI-H460 lung
NCI-H522 lung = tested on: NCI-H522 lung
NCI/ADR-RES ovarian = tested on: NCI/ADR-RES ovarian
OVCAR-3 ovarian = tested on: OVCAR-3 ovarian
OVCAR-4 ovarian = tested on: OVCAR-4 ovarian
OVCAR-5 ovarian = tested on: OVCAR-5 ovarian
OVCAR-8 ovarian = tested on: OVCAR-8 ovarian
PC-3 prostate = tested on: PC-3 prostate
RPMI-8226 leukemia = tested on: RPMI-8226 leukemia
RXF 393 renal = tested on: RXF 393 renal
SF-268 CNS = tested on: SF-268 CNS
SF-295 CNS = tested on: SF-295 CNS
SF-539 CNS = tested on: SF-539 CNS
SK-MEL-2 melanoma = tested on: SK-MEL-2 melanoma
SK-MEL-28 melanoma = tested on: SK-MEL-28 melanoma
SK-MEL-5 melanoma = tested on: SK-MEL-5 melanoma
SK-OV-3 ovarian = tested on: SK-OV-3 ovarian
SN12C renal = tested on: SN12C renal
SNB-19 CNS = tested on: SNB-19 CNS
SNB-75 CNS = tested on: SNB-75 CNS
SR leukemia = tested on: SR leukemia
SW-620 colon = tested on: SW-620 colon
T-47D breast = tested on: T-47D breast
TK-10 renal = tested on: TK-10 renal
U251 CNS = tested on: U251 CNS
UACC-257 melanoma = tested on: UACC-257 melanoma
UACC-62 melanoma = tested on: UACC-62 melanoma
UO-31 renal = tested on: UO-31 renal

CC1=NN(c2nc(N)nc(C(C#N)C(=O)c3cc4c(cc3Cl)Sc3nccn3S4(=O)=O)n2)C(C)(C)C1 (configuration not stated)
TGI (786-0 renal): 34 µM | TGI (A498 renal): > 100 µM | TGI (A549 NSCLC): > 100 µM | TGI (ACHN renal): > 100 µM | TGI (BT-549 breast): 98.6 µM | TGI (CAKI-1 renal): > 100 µM | TGI (CCRF-CEM leukemia): 50.3 µM | TGI (COLO 205 colon): > 100 µM | TGI (DU-145 prostate): 94.4 µM | TGI (EKVX NSCLC): > 100 µM | TGI (HCC-2998 colon): 33.8 µM | TGI (HCT-116 colon): > 100 µM | TGI (HCT-15 colon): 67.3 µM | TGI (HL-60(TB) leukemia): 61.1 µM | TGI (HOP-62 NSCLC): > 100 µM | TGI (HOP-92 NSCLC): > 100 µM | TGI (HS 578T breast): > 100 µM | TGI (HT29 colon): > 100 µM | TGI (IGROV1 ovarian): > 100 µM | TGI (K-562 leukemia): > 100 µM | TGI (KM12 colon): > 100 µM | TGI (LOX IMVI melanoma): > 100 µM | TGI (M14 melanoma): > 100 µM | TGI (MALME-3M melanoma): 48.5 µM | TGI (MCF7 breast): > 100 µM | TGI (MDA-MB-231 breast): 55 µM | TGI (MDA-MB-435): > 100 µM | TGI (MDA-N): > 100 µM | TGI (MOLT-4 leukemia): 68.2 µM | TGI (NCI-H226 lung): 90 µM | TGI (NCI-H23 lung): 37.2 µM | TGI (NCI-H460 lung): > 100 µM | TGI (NCI-H522 lung): 69.7 µM | TGI (NCI/ADR-RES ovarian): > 100 µM | TGI (OVCAR-3 ovarian): 57 µM | TGI (OVCAR-4 ovarian): > 100 µM | TGI (OVCAR-5 ovarian): > 100 µM | TGI (OVCAR-8 ovarian): > 100 µM | TGI (PC-3 prostate): > 100 µM | TGI (RPMI-8226 leukemia): 63.2 µM | TGI (RXF 393 renal): > 100 µM | TGI (SF-268 CNS): > 100 µM | TGI (SF-295 CNS): > 100 µM | TGI (SF-539 CNS): > 100 µM | TGI (SK-MEL-2 melanoma): 53.7 µM | TGI (SK-MEL-28 melanoma): > 100 µM | TGI (SK-MEL-5 melanoma): 48.1 µM | TGI (SK-OV-3 ovarian): 51.4 µM | TGI (SN12C renal): > 100 µM | TGI (SNB-19 CNS): > 100 µM | TGI (SNB-75 CNS): > 100 µM | TGI (SR leukemia): 25 µM | TGI (SW-620 colon): > 100 µM | TGI (T-47D breast): 77.9 µM | TGI (TK-10 renal): > 100 µM | TGI (U251 CNS): > 100 µM | TGI (UACC-257 melanoma): 48.5 µM | TGI (UACC-62 melanoma): 66.9 µM | TGI (UO-31 renal): 67.2 µM

Cc1cc2[nH]c(Cl)c(/C=C3\C(=O)Nc4ccccc43)c2cc1O
TGI (786-0 renal): > 37.8 µM | TGI (A498 renal): 16.1 µM | TGI (A549 NSCLC): 21.6 µM | TGI (ACHN renal): 21.6 µM | TGI (BT-549 breast): 25 µM | TGI (CAKI-1 renal): 19.7 µM | TGI (CCRF-CEM leukemia): 9.32 µM | TGI (COLO 205 colon): 30.1 µM | TGI (DU-145 prostate): 12.9 µM | TGI (EKVX NSCLC): 18 µM | TGI (HCC-2998 colon): 16 µM | TGI (HCT-116 colon): > 36.7 µM | TGI (HCT-15 colon): 23.3 µM | TGI (HL-60(TB) leukemia): 6.16 µM | TGI (HOP-62 NSCLC): 25.9 µM | TGI (HOP-92 NSCLC): 22.8 µM | TGI (HS 578T breast): > 100 µM | TGI (HT29 colon): 19.5 µM | TGI (IGROV1 ovarian): 10.9 µM | TGI (K-562 leukemia): 18.8 µM | TGI (KM12 colon): 17.1 µM | TGI (LOX IMVI melanoma): 40 µM | TGI (M14 melanoma): 17 µM | TGI (MALME-3M melanoma): 16.3 µM | TGI (MCF7 breast): 16.5 µM | TGI (MDA-MB-231 breast): 15.9 µM | TGI (MDA-MB-435): 1.18 µM | TGI (MDA-N): 1.97 µM | TGI (MOLT-4 leukemia): 32.9 µM | TGI (NCI-H226 lung): 4.31 µM | TGI (NCI-H23 lung): 10.5 µM | TGI (NCI-H460 lung): 15 µM | TGI (NCI-H522 lung): 4.66 µM | TGI (NCI/ADR-RES ovarian): > 48.9 µM | TGI (OVCAR-3 ovarian): 26.7 µM | TGI (OVCAR-4 ovarian): 25.9 µM | TGI (OVCAR-5 ovarian): 20.1 µM | TGI (OVCAR-8 ovarian): 25.8 µM | TGI (PC-3 prostate): 12.8 µM | TGI (RPMI-8226 leukemia): 9.95 µM | TGI (RXF 393 renal): 9.66 µM | TGI (SF-268 CNS): 18.2 µM | TGI (SF-295 CNS): 11.3 µM | TGI (SF-539 CNS): 4.6 µM | TGI (SK-MEL-2 melanoma): 12.9 µM | TGI (SK-MEL-28 melanoma): 24.2 µM | TGI (SK-MEL-5 melanoma): 12.3 µM | TGI (SK-OV-3 ovarian): 19 µM | TGI (SN12C renal): 12.2 µM | TGI (SNB-19 CNS): 17.2 µM | TGI (SNB-75 CNS): 16.5 µM | TGI (SR leukemia): 4.17 µM | TGI (SW-620 colon): 30.7 µM | TGI (T-47D breast): > 56.9 µM | TGI (TK-10 renal): 23.5 µM | TGI (U251 CNS): 14.4 µM | TGI (UACC-257 melanoma): 23.6 µM | TGI (UACC-62 melanoma): 9.08 µM | TGI (UO-31 renal): 17.8 µM

CC12CCC(C(Br)(Br)C1=O)C2(C)C (configuration not stated)
TGI (786-0 renal): 3.84 µM | TGI (A498 renal): 17.5 µM | TGI (A549 NSCLC): > 100 µM | TGI (ACHN renal): 7.69 µM | TGI (BT-549 breast): 2.68 µM | TGI (CAKI-1 renal): 14.9 µM | TGI (CCRF-CEM leukemia): 0.196 µM | TGI (COLO 205 colon): 14.7 µM | TGI (DU-145 prostate): 37.1 µM | TGI (EKVX NSCLC): 2.81 µM | TGI (HCC-2998 colon): 4.91 µM | TGI (HCT-116 colon): 3.71 µM | TGI (HCT-15 colon): 3.57 µM | TGI (HL-60(TB) leukemia): 0.149 µM | TGI (HOP-62 NSCLC): 13.6 µM | TGI (HOP-92 NSCLC): 2.81 µM | TGI (HS 578T breast): 9.29 µM | TGI (HT29 colon): 3.19 µM | TGI (IGROV1 ovarian): 0.516 µM | TGI (K-562 leukemia): 13.1 µM | TGI (KM12 colon): 16.1 µM | TGI (LOX IMVI melanoma): 11.3 µM | TGI (M14 melanoma): 3.98 µM | TGI (MALME-3M melanoma): 1 µM | TGI (MCF7 breast): > 36.8 µM | TGI (MDA-MB-231 breast): 1.51 µM | TGI (MDA-MB-435): 2.24 µM | TGI (MDA-N): 2.65 µM | TGI (MOLT-4 leukemia): 2.53 µM | TGI (NCI-H226 lung): 8.64 µM | TGI (NCI-H23 lung): 2.21 µM | TGI (NCI-H460 lung): 27.2 µM | TGI (NCI-H522 lung): 0.155 µM | TGI (NCI/ADR-RES ovarian): 1.06 µM | TGI (OVCAR-3 ovarian): 4.1 µM | TGI (OVCAR-4 ovarian): 5.58 µM | TGI (OVCAR-5 ovarian): 6.57 µM | TGI (OVCAR-8 ovarian): 11.3 µM | TGI (PC-3 prostate): 7.98 µM | TGI (RPMI-8226 leukemia): 1.78 µM | TGI (RXF 393 renal): 2.54 µM | TGI (SF-268 CNS): 1.22 µM | TGI (SF-295 CNS): 22.4 µM | TGI (SF-539 CNS): 16.9 µM | TGI (SK-MEL-2 melanoma): 0.98 µM | TGI (SK-MEL-28 melanoma): 6.46 µM | TGI (SK-MEL-5 melanoma): 4.74 µM | TGI (SK-OV-3 ovarian): > 31.6 µM | TGI (SN12C renal): 5.84 µM | TGI (SNB-19 CNS): > 57.6 µM | TGI (SNB-75 CNS): 11.6 µM | TGI (SR leukemia): 12.9 µM | TGI (SW-620 colon): 0.71 µM | TGI (T-47D breast): 1.02 µM | TGI (TK-10 renal): 11 µM | TGI (U251 CNS): 0.224 µM | TGI (UACC-257 melanoma): 16.7 µM | TGI (UACC-62 melanoma): 10.1 µM | TGI (UO-31 renal): 3.25 µM
